Earlier results, collected in patent publication US20170014380A1, “Vildagliptin Formulation Process Under Inert Gas Atmosphere” (Sanovell IIac Sanayi Ve Ticaret Anonim Sirketi, priority 2014, published 2017).

solubility in organic polar solvents (in organic polar solvents): soluble | solubility in water (in water): soluble
SMILES: N#C[C@@H]1CCCN1C(=O)CN[C@@]12C[C@@H]3C[C@@H](CC(O)(C3)C1)C2 [Vildagliptin, (S)-{[(3-hydroxyadamantan-1-yl)amino]acetyl}pyrrolidine-2-carbonitril]
